Experimental data reported in patent US11203608B2, “Platinum-containing compounds, and related compositions and uses thereof” (Massachusetts Institute of Technology, priority 2019, dated 2021).

What was measured:
[1] = system: HT-29 human colorectal adenocarcinoma; experiment: Cell growth, resazurin assay, HT-29; type: cell-based; details: 96-h exposure (table title); read-out: IC50 HT-29 (colon)
Procedure: (§1) Cells were cultured in 10 mL of Advanced DMEM/F12 (ADMEM/F12), supplemented with 5% FBS, 2 mM GlutaMAX, and 1% Penicillin-Streptomycin in 10 cm tissue culture plates. Cells were then plated into 96-well plates with about 2.5×10^3 cells per well. Cells were plated with 200 μL per well of ADMEM/F12 supplemented with 5% FBS, 2 mM GlutaMAX, and 1% Penicillin-Streptomycin. Cells were treated with dose responses of doxorubicin, oxaliplatin, or doxaliplatin upon plating. The cells were then cultured for 72 hours following drug treatment, and cell growth was measured by resazurin assay.

U2OS human osteosarcoma = experiment: Cell growth, resazurin assay, U2OS; type: cell-based; details: 96-h exposure (table title); read-out: IC50 U2OS (bone)
Procedure: as §1

[2] = system: HL60 human leukemia cell line; experiment: Cell growth, resazurin assay, HL60; type: cell-based; details: 96-h exposure (table title)
Procedure: as §1

[3] = Solubility and stability in organic solvents (observed during NMR); type: physicochemical
Procedure: To a stirred solution of K2PtCl4 (41.5 mg, 0.100 mmol) in water (30 mL), a solution of 9 bis(trifluoroacetic acid) salt (77.0 mg, 0.100 mmol) in water (9 mL) was added in one portion. Red precipitate formed immediately. The reaction was stirred at room temperature for 24 h. To the same solution was added AgNO3 aq. solution (0.10 M, 4.0 mL). The reaction was stirred at room temperature for 24 h. To this mixture was then added K2C2O4 aq. solution (0.20 M, 0.50 mL). The reaction was stirred at room temperature for 24 h. The reaction mixture was lyophilized together with a small amount of C18-reversed phase silica gel. […] The multiplicity of some ^1H NMR signals were not determined due to overlap. […] Due to the relatively low concentration of 12 in […], only part of the ^13C NMR signals were detected through ^13C-^1H correlation experiments. The ^13C NMR signals of Conformer A detected by ^1H-^13C HSQC and ^1H-^13C HMBC spectroscopy: ^13C{^1H} NMR (101 MHz, DMSO-d6) δ 16.98, 31.68, 34.80, 37.89, 55.85, 56.35, 64.07, 65.27, 66.70, 68.15, 98.84, 118.56, 118.86, 134.84, 159.78. The ^13C NMR signals of Conformer B detected by ^1H-^13C HSQC and ^1H-^13C HMBC spectroscopy: ^13C{^1H} NMR (101 MHz, DMSO-d6) δ 17.24, 32.01, 36.73, 37.27, 56.13, 56.31, 63.56, 64.07, 68.53, 69.85, 99.05, 118.68, 118.84, 135.99, 160.62. ^195Pt NMR (86 MHz, DMSO-d6) δ−1989 (br). […]

IC50 [1]: 330 nM | IC50 (U2OS human osteosarcoma): 52 nM | IC50 [2]: 160 nM | Solubility in DMF ([3]; DMF): low solubility | Solubility in DMSO-d6 ([3]; DMSO-d6): relatively high solubility
SMILES: COc1cccc2c1C(=O)c1c(O)c3c(c(O)c1C2=O)CC(O)(C(=O)CO)CC3OC1CC(N)C(N)C(C)O1.O=C1[O][Pt][O]C1=O (centres unmarked) [DoxPt, Doxaliplatin]
